Measurements from PubChem BioAssay (NCI).
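Growth conditions: 96-well plates. Treatment: test compound, 48 hours, 5 concentrations. Analysis: linear interpolation between bracketing concentrations; unreached endpoints set to highest concentration. TGI marks complete inhibition of growth.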

Experiments:
Experiment in all cases: inhibition of tumour cell growth, NCI panel, 48 h
[1] = tested on: SNB-75 CNS
[2] = tested on: MOLT-4 leukemia
[3] = tested on: NCI-H460 lung
[4] = tested on: HL-60(TB) leukemia
[5] = tested on: SK-MEL-2 melanoma
[6] = tested on: A498 renal
[7] = tested on: PC-3 prostate
[8] = tested on: 786-0 renal
[9] = tested on: HOP-92 NSCLC
[10] = tested on: MALME-3M melanoma
[11] = tested on: TK-10 renal
[12] = tested on: OVCAR-8 ovarian
[13] = tested on: MDA-N
[14] = tested on: EKVX NSCLC
[15] = tested on: HCT-116 colon
[16] = tested on: K-562 leukemia
[17] = tested on: MCF7 breast
[18] = tested on: SN12C renal
[19] = tested on: DU-145 prostate
[20] = tested on: RXF 393 renal
[21] = tested on: NCI-H23 lung
[22] = tested on: RPMI-8226 leukemia
[23] = tested on: SK-MEL-28 melanoma
[24] = tested on: IGROV1 ovarian
[25] = tested on: SK-OV-3 ovarian
[26] = tested on: SW-620 colon
[27] = tested on: KM12 colon
[28] = tested on: NCI-H226 lung
[29] = tested on: HOP-62 NSCLC
[30] = tested on: ACHN renal
[31] = tested on: UACC-257 melanoma
[32] = tested on: NCI-H522 lung
[33] = tested on: SF-268 CNS
[34] = tested on: BT-549 breast
[35] = tested on: SF-295 CNS
[36] = tested on: U251 CNS
[37] = tested on: SNB-19 CNS
[38] = tested on: MDA-MB-231 breast
[39] = tested on: OVCAR-3 ovarian
[40] = tested on: M14 melanoma
[41] = tested on: SF-539 CNS
[42] = tested on: A549 NSCLC
[43] = tested on: HCT-15 colon
[44] = tested on: SK-MEL-5 melanoma
[45] = tested on: LOX IMVI melanoma
[46] = tested on: OVCAR-5 ovarian
[47] = tested on: HCC-2998 colon
[48] = tested on: COLO 205 colon
[49] = tested on: UACC-62 melanoma
[50] = tested on: CAKI-1 renal
[51] = tested on: HT29 colon
[52] = tested on: SR leukemia
[53] = tested on: HS 578T breast
[54] = tested on: OVCAR-4 ovarian
[55] = tested on: NCI/ADR-RES ovarian
[56] = tested on: MDA-MB-435
[57] = tested on: UO-31 renal
[58] = tested on: CCRF-CEM leukemia

## CC(C)/C(Cl)=N\OC(=O)Nc1ccc(F)c([N+](=O)[O-])c1
[1]
  TGI: 27.2 µM
[2]
  TGI: 4.94 µM
[3]
  TGI: 7.89 µM
[4]
  TGI: 2.85 µM
[5]
  TGI: 29.9 µM
[6]
  TGI: 41.7 µM
[7]
  TGI: 32.2 µM
[8]
  TGI: 7.87 µM
[9]
  TGI: 4.77 µM
[10]
  TGI: 3 µM
[11]
  TGI: 13.5 µM
[12]
  TGI: 10.9 µM
[13]
  TGI: 29.4 µM
[14]
  TGI: 26.5 µM
[15]
  TGI: 11.7 µM
[16]
  TGI: > 100 µM
[17]
  TGI: > 58.1 µM
[18]
  TGI: 16.5 µM
[19]
  TGI: 32.8 µM
[20]
  TGI: 33 µM
[21]
  TGI: 41.2 µM
[22]
  TGI: 4.87 µM
[23]
  TGI: 17.4 µM
[24]
  TGI: 13.5 µM
[25]
  TGI: 34 µM
[26]
  TGI: 7.56 µM
[27]
  TGI: 28.5 µM
[28]
  TGI: 50.1 µM
[29]
  TGI: 32 µM
[30]
  TGI: 3.39 µM
[31]
  TGI: 33.5 µM
[32]
  TGI: 2.45 µM
[33]
  TGI: 27.6 µM
[34]
  TGI: 27 µM
[35]
  TGI: 37.9 µM
[36]
  TGI: 31.1 µM
[37]
  TGI: 30.6 µM
[38]
  TGI: 28.9 µM
[39]
  TGI: 27.2 µM
[40]
  TGI: > 32.4 µM
[41]
  TGI: 7.82 µM
[42]
  TGI: 56 µM
[43]
  TGI: 6.75 µM
[44]
  TGI: 22.4 µM
[45]
  TGI: 10.7 µM
[46]
  TGI: 42.8 µM
[47]
  TGI: > 100 µM
[48]
  TGI: 4.36 µM
[49]
  TGI: 39.1 µM
[50]
  TGI: 3.27 µM
[51]
  TGI: 35.3 µM
[52]
  TGI: 26.3 µM
[53]
  TGI: 25.1 µM
[54]
  TGI: 8.99 µM
[55]
  TGI: 35.2 µM
[56]
  TGI: 26 µM
[57]
  TGI: 17.9 µM

## CCn1c(-c2ccccc2)nc2c1C(=O)c1ccccc1C2=O
[2]
  TGI: 91.1 µM
[3]
  TGI: 46.5 µM
[4]
  TGI: > 100 µM
[7]
  TGI: 64.3 µM
[8]
  TGI: > 100 µM
[9]
  TGI: 82 µM
[10]
  TGI: 21.7 µM
[11]
  TGI: 85.9 µM
[12]
  TGI: 35 µM
[13]
  TGI: 36.9 µM
[15]
  TGI: 63.6 µM
[16]
  TGI: > 100 µM
[17]
  TGI: > 100 µM
[18]
  TGI: > 100 µM
[19]
  TGI: > 100 µM
[20]
  TGI: 50.9 µM
[21]
  TGI: > 100 µM
[22]
  TGI: > 100 µM
[23]
  TGI: > 100 µM
[24]
  TGI: 79.8 µM
[25]
  TGI: 86 µM
[26]
  TGI: > 100 µM
[58]
  TGI: > 100 µM
[27]
  TGI: 73.8 µM
[28]
  TGI: 71.6 µM
[29]
  TGI: > 100 µM
[32]
  TGI: 43 µM
[34]
  TGI: 60.6 µM
[35]
  TGI: 62.9 µM
[36]
  TGI: > 100 µM
[37]
  TGI: > 100 µM
[39]
  TGI: 49.5 µM
[40]
  TGI: 54 µM
[41]
  TGI: > 100 µM
[42]
  TGI: > 100 µM
[43]
  TGI: 44.1 µM
[44]
  TGI: 23.2 µM
[46]
  TGI: 82.8 µM
[47]
  TGI: 51.4 µM
[48]
  TGI: 91.1 µM
[49]
  TGI: 60.2 µM
[51]
  TGI: 30.3 µM
[52]
  TGI: > 100 µM
[53]
  TGI: > 100 µM
[54]
  TGI: 30 µM
[55]
  TGI: 33.9 µM
[56]
  TGI: 33.8 µM
